Here are results for 5 molecules from patent publication US20250382344A1, “Soluble GLP1/GIP/NPY2 Receptor Triple Agonists” (Boehringer Ingelheim International GmH, priority 2024, published 2025).

Read-outs that look alike come from different tables or passages of the source.

One data set deals with T1, hGIPR (Homo sapiens, UniProt P48546).
T1 construct: expressed in transfected cells; host or cells: CHO CRE-luciferase reporter cells
T1 sequence (P48546 22-466): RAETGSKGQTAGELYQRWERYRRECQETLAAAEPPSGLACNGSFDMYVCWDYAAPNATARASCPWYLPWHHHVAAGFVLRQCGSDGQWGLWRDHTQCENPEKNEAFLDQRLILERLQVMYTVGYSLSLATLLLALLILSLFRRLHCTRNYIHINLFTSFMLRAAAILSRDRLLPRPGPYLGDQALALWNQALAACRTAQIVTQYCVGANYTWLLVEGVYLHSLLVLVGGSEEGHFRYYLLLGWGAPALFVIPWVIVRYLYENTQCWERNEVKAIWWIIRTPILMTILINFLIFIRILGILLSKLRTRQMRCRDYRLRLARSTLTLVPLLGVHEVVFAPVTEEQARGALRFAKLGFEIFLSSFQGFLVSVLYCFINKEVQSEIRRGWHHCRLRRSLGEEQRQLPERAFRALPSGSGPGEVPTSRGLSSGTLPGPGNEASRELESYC
Nature of the data set: hGIPR CreLuc assay in 0.5% and 100% plasma (CHO CRE-luciferase reporter cells). It is filed as cell-based.

The nature of data set [1]: Solubility in 0.1 M phosphate buffer at pH 7. Format: physicochemical. The following applies: 0.1 M phosphate buffer at pH 7, 10 mg/mL final peptide concentration, shaking 2 hours at room temperature, peptides as TFA-salts, measured sample pH 6.5-7.0.
The mark [2] stands for this setting: 0.5% human plasma, read-out: hGIPR 0.5% hP.

Turning to `CC[C@H](C)[C@H](NC(=O)[C@H](CC(C)C)NC(=O)[C@H](Cc1c[nH]cn1)NC(=O)[C@H](CCCNC(=N)N)NC(=O)[C@@H](NC(=O)[C@H](Cc1ccccc1)NC(=O)[C@H](C)NC(=O)C(C)(C)NC(=O)[C@H](CCC(N)=O)NC(=O)[C@H](C)NC(=O)[C@H](CCC(N)=O)NC(=O)[C@H](CC(C)C)NC(=O)[C@H](CCC(=O)O)NC(=O)[C@H](CC(C)C)NC(=O)C(C)(C)NC(=O)[C@@H](NC(=O)[C@H](CO)NC(=O)[C@H](Cc1ccc(O)cc1)NC(=O)[C@H](CC(=O)O)NC(=O)[C@H](CO)NC(=O)[C@@H](NC(=O)[C@H](Cc1ccccc1)NC(=O)[C@@H](NC(=O)CNC(=O)[C@H](CCC(=O)O)NC(=O)C(C)(C)NC(=O)[C@@H](N)Cc1ccc(O)cc1)[C@@H](C)O)[C@@H](C)O)[C@@H](C)CC)C(C)C)C(=O)N[C@@H](CC(N)=O)C(=O)N[C@@H](CCCCNC(=O)[C@@H](N)CCCCNC(=O)CC[C@H](NC(=O)CC[C@H](NC(=O)CC[C@H](NC(=O)CC[C@H](NC(=O)CC[C@H](NC(=O)CC[C@H](NC(=O)CCCCCCCCCCCCCCCCC(=O)O)C(=O)O)C(=O)O)C(=O)O)C(=O)O)C(=O)O)C(=O)O)C(=O)NC(C)(C)C(=O)N[C@H](C(=O)N[C@@H](CCCNC(=N)N)C(=O)N[C@@H](CCC(N)=O)C(=O)N[C@@H](CCCNC(=N)N)C(=O)N[C@@H](Cc1ccc(O)cc1)C(N)=O)[C@@H](C)O` [Compound 65, Y-Aib-E-G-T-F-T-S-D-Y-S-I-Aib-L-E-L-Q-A-Q-Aib-A-F-V-R-H-L-I-N-K(1,3)-Aib-T-R-Q-R-Y-NH2.C18DA-gGlu-gGlu-gGlu-gGlu-gGlu-gGlu-eLys(1,2)], on hGIPR (setting [2]), the EC50 was determined as 0.7 nM. The solubility at 2 h in data set [1] was found to be 3900 µg/mL.
Take `CC[C@H](C)[C@H](NC(=O)[C@H](CC(C)C)NC(=O)[C@H](Cc1c[nH]cn1)NC(=O)[C@H](CCCNC(=N)N)NC(=O)[C@@H](NC(=O)[C@H](Cc1ccccc1)NC(=O)[C@H](C)NC(=O)C(C)(C)NC(=O)[C@H](CCC(N)=O)NC(=O)[C@H](C)NC(=O)[C@H](CCC(N)=O)NC(=O)[C@H](CCCCN)NC(=O)[C@H](CCC(=O)O)NC(=O)[C@H](CC(C)C)NC(=O)C(C)(C)NC(=O)[C@@H](NC(=O)[C@H](CO)NC(=O)[C@H](Cc1ccc(O)cc1)NC(=O)[C@H](CC(=O)O)NC(=O)[C@H](CO)NC(=O)[C@@H](NC(=O)[C@H](Cc1ccccc1)NC(=O)[C@@H](NC(=O)CNC(=O)[C@H](CCC(=O)O)NC(=O)C(C)(C)NC(=O)[C@@H](N)Cc1ccc(O)cc1)[C@@H](C)O)[C@@H](C)O)[C@@H](C)CC)C(C)C)C(=O)N[C@@H](CC(N)=O)C(=O)N[C@@H](CCCCNC(=O)[C@@H](N)CCCCNC(=O)CC[C@H](NC(=O)CC[C@H](NC(=O)CC[C@H](NC(=O)CC[C@H](NC(=O)CC[C@H](NC(=O)CC[C@H](NC(=O)CCCCCCCCCCCCCCCCC(=O)O)C(=O)O)C(=O)O)C(=O)O)C(=O)O)C(=O)O)C(=O)O)C(=O)N[C@H](C(=O)N[C@H](C(=O)N[C@@H](CCCNC(=N)N)C(=O)N[C@@H](CCC(N)=O)C(=O)N[C@@H](CCCNC(=N)N)C(=O)N[C@@H](Cc1ccc(O)cc1)C(N)=O)[C@@H](C)O)[C@@H](C)CC` [Compound 66, Y-Aib-E-G-T-F-T-S-D-Y-S-I-Aib-L-E-K-Q-A-Q-Aib-A-F-V-R-H-L-I-N-K(1,3)-I-T-R-Q-R-Y-NH2.C18DA-gGlu-gGlu-gGlu-gGlu-gGlu-gGlu-eLys(1,2)]: on hGIPR (setting [2]), the EC50 is 0.2 nM. In addition, in data set [1], the solubility at 2 h amounted to 5000 µg/mL.
Turning to `CC[C@H](C)[C@H](NC(=O)[C@H](CC(C)C)NC(=O)[C@H](Cc1c[nH]cn1)NC(=O)[C@H](CCCNC(=N)N)NC(=O)[C@@H](NC(=O)[C@H](Cc1ccccc1)NC(=O)[C@H](C)NC(=O)C(C)(C)NC(=O)[C@H](CCC(N)=O)NC(=O)[C@H](C)NC(=O)[C@H](CCC(N)=O)NC(=O)[C@H](CCC(=O)O)NC(=O)[C@H](CCC(=O)O)NC(=O)[C@H](CC(C)C)NC(=O)C(C)(C)NC(=O)[C@@H](NC(=O)[C@H](CO)NC(=O)[C@H](Cc1ccc(O)cc1)NC(=O)[C@H](CC(=O)O)NC(=O)[C@H](CO)NC(=O)[C@@H](NC(=O)[C@H](Cc1ccccc1)NC(=O)[C@@H](NC(=O)CNC(=O)[C@H](CCC(=O)O)NC(=O)C(C)(C)NC(=O)[C@@H](N)Cc1ccc(O)cc1)[C@@H](C)O)[C@@H](C)O)[C@@H](C)CC)C(C)C)C(=O)N[C@@H](CC(N)=O)C(=O)N[C@@H](CCCCNC(=O)CC[C@H](NC(=O)CC[C@H](NC(=O)CC[C@H](NC(=O)CC[C@H](NC(=O)CC[C@H](NC(=O)CCCCCCCCCCCCCCCCC(=O)O)C(=O)O)C(=O)O)C(=O)O)C(=O)O)C(=O)O)C(=O)NC(C)(C)C(=O)N[C@H](C(=O)N[C@@H](CCCNC(=N)N)C(=O)N[C@@H](CCC(N)=O)C(=O)N[C@@H](CCCNC(=N)N)C(=O)N[C@@H](Cc1ccc(O)cc1)C(N)=O)[C@@H](C)O` [Compound 75, Y-Aib-E-G-T-F-T-S-D-Y-S-I-Aib-L-E-E-Q-A-Q-Aib-A-F-V-R-H-L-I-N-K(1,3)-Aib-T-R-Q-R-Y-NH2.C18DA-gGlu-gGlu-gGlu-gGlu-gGlu(1,2)], on hGIPR (setting [2]), the EC50 worked out at 0.3 nM. Further, in data set [1], the solubility at 2 h stood at 4300 µg/mL.
Turning to `CC[C@H](C)[C@H](NC(=O)[C@H](CC(C)C)NC(=O)[C@H](Cc1c[nH]cn1)NC(=O)[C@H](CCCNC(=N)N)NC(=O)[C@@H](NC(=O)[C@H](Cc1ccccc1)NC(=O)[C@H](C)NC(=O)C(C)(C)NC(=O)[C@H](Cc1ccc(O)cc1)NC(=O)[C@H](C)NC(=O)[C@H](CCC(N)=O)NC(=O)[C@H](CCCCN)NC(=O)[C@H](CCC(=O)O)NC(=O)[C@H](CC(C)C)NC(=O)C(C)(C)NC(=O)[C@@H](NC(=O)[C@H](CO)NC(=O)[C@H](Cc1ccc(O)cc1)NC(=O)[C@H](CC(=O)O)NC(=O)[C@H](CO)NC(=O)[C@@H](NC(=O)[C@H](Cc1ccccc1)NC(=O)[C@@H](NC(=O)CNC(=O)[C@H](CCC(=O)O)NC(=O)C(C)(C)NC(=O)[C@@H](N)Cc1ccc(O)cc1)[C@@H](C)O)[C@@H](C)O)[C@@H](C)CC)C(C)C)C(=O)N[C@@H](CC(N)=O)C(=O)N[C@@H](CCCCNC(=O)[C@@H](N)CCCCNC(=O)CC[C@H](NC(=O)CC[C@H](NC(=O)CC[C@H](NC(=O)CC[C@H](NC(=O)CC[C@H](NC(=O)CC[C@H](NC(=O)CCCCCCCCCCCCCCCCC(=O)O)C(=O)O)C(=O)O)C(=O)O)C(=O)O)C(=O)O)C(=O)O)C(=O)NC(C)(C)C(=O)N[C@H](C(=O)N[C@@H](CCCNC(=N)N)C(=O)N[C@@H](CCC(N)=O)C(=O)N[C@@H](CCCNC(=N)N)C(=O)N[C@@H](Cc1ccc(O)cc1)C(N)=O)[C@@H](C)O` [Compound 84, Y-Aib-E-G-T-F-T-S-D-Y-S-I-Aib-L-E-K-Q-A-Y-Aib-A-F-V-R-H-L-I-N-K(1,3)-Aib-T-R-Q-R-Y-NH2.C18DA-gGlu-gGlu-gGlu-gGlu-gGlu-gGlu-eLys(1,2)], the EC50 on hGIPR (setting [2]) came out at 5 nM. Further, in data set [1], the solubility at 2 h was 4100 µg/mL.
`CC[C@H](C)[C@H](NC(=O)[C@H](CC(C)C)NC(=O)[C@H](Cc1c[nH]cn1)NC(=O)[C@H](CCCNC(=N)N)NC(=O)[C@@H](NC(=O)[C@H](Cc1ccccc1)NC(=O)[C@H](C)NC(=O)C(C)(C)NC(=O)[C@H](CCC(N)=O)NC(=O)[C@H](CCCNC(=N)N)NC(=O)[C@H](CCC(N)=O)NC(=O)[C@H](CCCCN)NC(=O)[C@H](CCC(=O)O)NC(=O)[C@H](CC(C)C)NC(=O)C(C)(C)NC(=O)[C@@H](NC(=O)[C@H](CO)NC(=O)[C@H](Cc1ccc(O)cc1)NC(=O)[C@H](CC(=O)O)NC(=O)[C@H](CO)NC(=O)[C@@H](NC(=O)[C@H](Cc1ccccc1)NC(=O)[C@@H](NC(=O)CNC(=O)[C@H](CCC(=O)O)NC(=O)C(C)(C)NC(=O)[C@@H](N)Cc1ccc(O)cc1)[C@@H](C)O)[C@@H](C)O)[C@@H](C)CC)C(C)C)C(=O)N[C@@H](CC(N)=O)C(=O)N[C@@H](CCCCNC(=O)[C@@H](N)CCCCNC(=O)CC[C@H](NC(=O)CC[C@H](NC(=O)CC[C@H](NC(=O)CC[C@H](NC(=O)CC[C@H](NC(=O)CC[C@H](NC(=O)CCCCCCCCCCCCCCCCC(=O)O)C(=O)O)C(=O)O)C(=O)O)C(=O)O)C(=O)O)C(=O)O)C(=O)NC(C)(C)C(=O)N[C@H](C(=O)N[C@@H](CCCNC(=N)N)C(=O)N[C@@H](CCC(N)=O)C(=O)N[C@@H](CCCNC(=N)N)C(=O)N[C@@H](Cc1ccc(O)cc1)C(N)=O)[C@@H](C)O` [Compound 91, Y-Aib-E-G-T-F-T-S-D-Y-S-I-Aib-L-E-K-Q-R-Q-Aib-A-F-V-R-H-L-I-N-K(1,3)-Aib-T-R-Q-R-Y-NH2.C18DA-gGlu-gGlu-gGlu-gGlu-gGlu-Glu-eLys(1,2)]: the EC50 on hGIPR (setting [2]) turned out to be 0.8 nM; at hGIPR (100% human plasma, read-out: hGIPR 100% hP), 14.4 nM. Besides, the solubility in data set [1] (read-out: Solubility) was found to be 2200 µg/mL.
